Data on 13 molecules can be found in paper PMC11934087, “Rational Design of Stapled Covalent Peptide Modifiers of Oncoprotein E6 from Human Papillomavirus” (ACS Chemical Biology, 2025).

Several values for one entry are separate records, joined by “and”; a condition that tells them apart may be missing. Equal entries are not always repeated. Where two headings read alike, the source gives them in different places. Where a SMILES comes first, the peptide text is derived from it. Bridges are numbered along the chain shown (N, C = ends). Where no end group is shown, it is not given here. [ ]: non-standard residue; d: D form. The star is where a group is joined. 5FAM = O=C1OC2(c3ccc(O)cc3Oc3cc(O)ccc32)c2ccc(C(=O)*)cc21; R8 = C=CCCCCCC[C@@](C)(N)C(=O)O; S5 = C=CCCC[C@](C)(N)C(=O)O; Dap = NC[C@H](N)C(=O)O; Acryloyl = C=CC(=O)*; ClAc = O=C(CCl)*; βAla = NCCC(=O)O

Data set [1] concerns the target T1, GST-E6 (GST-tagged HPV16 E6 protein) (Human papillomavirus type 16, UniProt P03126).
T1 construct: host or cells: E. coli BL21
Put plainly: Noncompetitive fluorescence polarization (FP) binding assay. The arrangement: species or system Human Papillomavirus (HPV-16). The protocol: An N-terminal carboxyfluorescein was included for FP analysis of binding affinity for both the natural backbone and the stapled peptides.
For noncompetitive FP experiments, varying concentrations of GST-E6 protein (38 μM; 10 point 2-fold serial dilution) were incubated with 30 nM fluorescently labeled peptides in buffer (10 μL total volume; 50 mM Tris, 200 mM NaCl, 1 mM DTT, 0.1% [v/v] Trition X-100) in black 384-well plates. For competitive FP experiments, 100 nM GST-E6 was incubated with 30 nM fluorescently labeled noncovalent peptide and varying concentrations (20 μM; 3-fold serial dilution) of covalent peptide in buffer (20 μL) with a final DMSO content of 0.5% [v/v]. Negative control (polarization reference; 30 nM fluorescent peptide, no protein) and blank reference (buffer alone) were included in triplicate for G-factor calibration. Sample plates were centrifuged (1 min, 500g) and incubated for 30 min at RT. Following incubation, FP at equilibrium was measured on a Tecan M1000 microplate reader (ex = 470 nm, em = 525; gain optimized, 200 flashes, 300 ms settle time, G-factor reference value 30 mP). Measured polarizations were fitted to a sigmoidal dose–response curve using GraphPad Prism software to generate KD values.

The nature of data set [2]: Glutathione reactivity assay (HPLC time course). The protocol: To evaluate the reactivity toward off-target thiols, the acrylamide, bromoacetamide, and chloroacetamide covalent peptides were exposed to glutathione (10 equiv) in an HPLC time course assay over 96 h (Figure 4A). Here, a set of nonfluorescent peptides (2b, 3b, and 4b) were synthesized with an N-terminal tryptophan for quantification through absorbance measurements. Glutathione is the most abundant thiol in human cells,[40] and time point measurements were obtained by quenching reactions with cold acetonitrile containing TFA (0.1%) and 5-carboxyfluorescein as an internal standard.
Covalent peptides (100 μM) were diluted from 10 mM DMSO stock solutions (1% final DMSO content) and incubated in buffer (500 μL total volume; 50 mM Tris, 200 mM NaCl) with glutathione (10 equiv, 1 mM) at 37 °C. To quench the reaction, 10 μL of the reaction mixture was added to 100 μL of cold acetonitrile containing 0.1% TFA [v/v] and 10 μM fluorescein, included as an internal standard. Reaction mixtures were first analyzed by LCMS after 1 h of incubation to assign the glutathione adduct peak by comparison to mixtures quenched immediately following peptide addition. […] The AUC of the reacted covalent peptide was normalized to the AUC of the fluorescein standard. These values were plotted and fitted with nonlinear regression using GraphPad Prism software.

The target in data set [3] is T1, GST-E6 (GST-tagged HPV16 E6 protein). Briefly: Competitive fluorescence polarization assay against a fluorescent E6 peptide ligand. The format is binding, Human Papillomavirus (HPV-16). On the procedure:
Next, covalent inhibition was evaluated by using a competitive FP assay. Recombinant GST-E6 was pre-incubated with a fluorescently labeled ligand for 30 min before addition of varying concentrations of the non-fluorescent covalent peptides (Figure 4B). Fluorophore polarization is greatest when the ligand is bound to its target, and consequently, a displacement of the ligand by the covalent peptide results in a decrease in polarization.[41],[42] The formation of a covalent bond between the peptide inhibitor and the C58 residue within E6 is expected to occur more slowly than noncovalent binding, permitting characterization of the affinity of the peptides 2b, 3b, and 4b.[41] […]
For noncompetitive FP experiments, varying concentrations of GST-E6 protein (38 μM; 10 point 2-fold serial dilution) were incubated with 30 nM fluorescently labeled peptides in buffer (10 μL total volume; 50 mM Tris, 200 mM NaCl, 1 mM DTT, 0.1% [v/v] Trition X-100) in black 384-well plates. […] Following incubation, FP at equilibrium was measured on a Tecan M1000 microplate reader (ex = 470 nm, em = 525; gain optimized, 200 flashes, 300 ms settle time, G-factor reference value 30 mP). Measured polarizations were fitted to a sigmoidal dose–response curve using GraphPad Prism software to generate KD values.

The next data set deals with bovine α-chymotrypsin (Bos taurus, UniProt P00766). Put plainly: in vitro. The note with it: 50 μM peptide, 50 nM bovine α-chymotrypsin, pH 7.5, room temp, HPLC. On the procedure: Chymotrypsin was chosen due to its substrate selectivity for peptides containing hydrophobic side chains, including leucine, making the LxxLL motif a well-suited substrate for proteolytic cleavage by this protease.[54]
For each time point, a 50 μL aliquot was removed from the reaction mixture and quenched with 40 μL of 0.5% [v/v] trifluoroacetic acid in acetonitrile. Quenched samples were subsequently analyzed by analytical reverse-phase HPLC, and the remaining undigested peptide was quantified by integration of AUC. A plot of percent peptide remaining vs time was fit to a one-phase exponential decay to calculate half-life using GraphPad Prism software.

For data set [4], the target named is T2, Glutathione S-transferase (GST) tagged HPV-16 E6 (Human papillomavirus type 16 (HPV-16), UniProt P03126 1-158).
T2 construct: Oncoprotein E6 of human papillomavirus type 16; GST fusion printed as 47 kDa; also called GST-E6; E6-GST; source: E. coli BL21, purified (glutathione agarose)
Briefly: fluorescence polarisation; GST-E6 titrated (from 38 μM, 10 point 2-fold serial dilution) against 30 nM fluorescent peptide; 50 mM Tris, 200 mM NaCl, 1 mM DTT, 0.1% Triton X-100; 30 min at RT; sigmoidal dose-response fit. The note with it: both partners purified.

Data set [5] addresses T2, Glutathione S-transferase (GST) tagged …. Briefly: fluorescence polarisation. The following applies: both partners purified.

T1 sequence (P03126 whole entry): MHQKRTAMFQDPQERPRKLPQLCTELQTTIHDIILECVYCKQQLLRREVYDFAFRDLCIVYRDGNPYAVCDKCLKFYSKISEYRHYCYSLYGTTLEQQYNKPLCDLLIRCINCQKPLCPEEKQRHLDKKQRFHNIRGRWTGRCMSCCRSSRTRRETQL
T2 sequence (P03126 whole entry, the tested form may be a part): as the sequence (P03126 whole entry) above

`CC(C)C[C@H](NC(=O)[C@H](CC(C)C)NC(=O)[C@]1(C)CCCC=CCCC[C@](C)(NC(=O)[C@H](CCC(=O)O)NC(=O)[C@H](C)NC(=O)[C@H](C)NC(=O)[C@H](C)NC(=O)CCNC(=O)c2ccc3c(c2)C(=O)OC32c3ccc(O)cc3Oc3cc(O)ccc32)C(=O)N[C@@H]([C@@H](C)O)C(=O)N[C@@H](CC(C)C)C(=O)N[C@@H](CCC(N)=O)C(=O)N1)C(=O)NCC(N)=O` [compound 7] ({5FAM-βAla}-AAAE[S5]TLQ[S5]LLG-NH2; staple 5-9) registered a Kd in data set [1] of 3000 nM. Take `CC(=O)N[C@@H](Cc1c[nH]c2ccccc12)C(=O)NCCC(=O)N[C@@H](C)C(=O)N[C@@H](C)C(=O)N[C@@H](C)C(=O)N[C@@H](CCC(=O)O)C(=O)N[C@@H](CC(C)C)C(=O)N[C@H](C(=O)N[C@@H](CC(C)C)C(=O)N[C@@H](CCC(N)=O)C(=O)N[C@@H](CCC(=O)O)C(=O)N[C@@H](CC(C)C)C(=O)N[C@@H](CC(C)C)C(=O)N[C@@H](CNC(=O)CCl)C(N)=O)[C@@H](C)O` [4b] (Ac-W[βAla]AAAELTLQELL[Dap](ClAc)-NH2): the “t1/2 of reaction with glutathione” value in data set [2] (100 μM peptide, glutathione 10 equiv (1 mM), 50 mM Tris, 200 mM NaCl, 1% DMSO, 37 °C, up to 96 h, HPLC 280 nm, GSH adduct peak area, n = 3) is given as 7.0 h. Moreover, in data set [3], it took 40 nM to reach a half-maximal effect (EC50). In data set [1], `CC(C)C[C@H](NC(=O)[C@H](CC(C)C)NC(=O)[C@]1(C)CCCC=CCCCCCC[C@@](C)(NC(=O)[C@H](C)NC(=O)CCNC(=O)c2ccc3c(c2)C(=O)OC32c3ccc(O)cc3Oc3cc(O)ccc32)C(=O)N[C@@H](C)C(=O)N[C@@H](CCC(=O)O)C(=O)N[C@@H](CC(C)C)C(=O)N[C@@H]([C@@H](C)O)C(=O)N[C@@H](CC(C)C)C(=O)N[C@@H](CCC(N)=O)C(=O)N1)C(=O)NCC(N)=O` [compound 10] ({5FAM-βAla}-A[R8]AELTLQ[S5]LLG-NH2; staple 2-9) registered a Kd above 38000 nM. Turning to `C=CC(=O)NC[C@H](NC(=O)[C@H](CC(C)C)NC(=O)[C@H](CC(C)C)NC(=O)[C@H](CCC(=O)O)NC(=O)[C@H](CCC(N)=O)NC(=O)[C@H](CC(C)C)NC(=O)[C@@H](NC(=O)[C@H](CC(C)C)NC(=O)[C@H](CCC(=O)O)NC(=O)[C@H](C)NC(=O)[C@H](C)NC(=O)[C@H](C)NC(=O)CCNC(=O)[C@H](Cc1c[nH]c2ccccc12)NC(C)=O)[C@@H](C)O)C(N)=O` [2b] (Ac-W[βAla]AAAELTLQELL[Dap](Acryloyl)-NH2), the “t1/2 of reaction with glutathione” value in data set [2] is recorded as 10.3 h.

In the case of `CC(C)C[C@H](NC(=O)[C@H](CC(C)C)NC(=O)[C@H](CCC(=O)O)NC(=O)[C@]1(C)CCCC=CCCCCCC[C@@](C)(NC(=O)CCNC(=O)c2ccc3c(c2)C(=O)OC32c3ccc(O)cc3Oc3cc(O)ccc32)C(=O)N[C@@H](C)C(=O)N[C@@H](C)C(=O)N[C@@H](CCC(=O)O)C(=O)N[C@@H](CC(C)C)C(=O)N[C@@H]([C@@H](C)O)C(=O)N[C@@H](CC(C)C)C(=O)N1)C(=O)NCC(N)=O` [compound 9] ({5FAM-βAla}-[R8]AAELTL[S5]ELLG-NH2; staple 1-8), the Kd in data set [1] was 430 nM and < 1000 nM. Also, the “degradation by chymotrypsin within 4 h” value on bovine α-chymotrypsin (4 h) is “no degradation”. The “degradation by chymotrypsin on continued incubation up to 16 h” value on bovine α-chymotrypsin (up to 16 h) is recorded as “no significant degradation”. With `CC(C)C[C@H](NC(=O)[C@H](CC(C)C)NC(=O)[C@H](CCC(=O)O)NC(=O)[C@H](CCC(N)=O)NC(=O)[C@H](CC(C)C)NC(=O)[C@@H](NC(=O)[C@]1(C)CCCC=CCCC[C@](C)(NC(=O)CCNC(=O)c2ccc3c(c2)C(=O)OC32c3ccc(O)cc3Oc3cc(O)ccc32)C(=O)N[C@@H](C)C(=O)N[C@@H](C)C(=O)N[C@@H](CCC(=O)O)C(=O)N1)[C@@H](C)O)C(=O)NCC(N)=O` [compound 5] ({5FAM-βAla}-[S5]AAE[S5]TLQELLG-NH2; staple 1-5), the Kd in data set [1] is below 1000 nM.

B1: (i, i + 4) stapled peptide 7 (peptide)
chain: {5FAM-βAla}-AAAE[S5]TLQ[S5]LLG-NH2
modifications: staple 5-9
SMILES: CC(C)C[C@H](NC(=O)[C@H](CC(C)C)NC(=O)[C@]1(C)CCCC=CCCC[C@](C)(NC(=O)[C@H](CCC(=O)O)NC(=O)[C@H](C)NC(=O)[C@H](C)NC(=O)[C@H](C)NC(=O)CCNC(=O)c2ccc3c(c2)C(=O)OC32c3ccc(O)cc3Oc3cc(O)ccc32)C(=O)N[C@@H]([C@@H](C)O)C(=O)N[C@@H](CC(C)C)C(=O)N[C@@H](CCC(N)=O)C(=O)N1)C(=O)NCC(N)=O
Regarding B1, the Kd in data set [4] worked out at 3200 nM. With {5FAM-βAla}-[R8]AAELTL[S5]ELLG (staple 1-8) [(i, i + 7) stapled peptide 9], the Kd in data set [4] worked out at 431 nM. Compared with the last molecule, the Kd is about 7.4-fold lower.

B2: (i, i + 4) stapled peptide 8 (peptide)
chain: {5FAM-βAla}-AAAELTL[S5]ELL[S5]-NH2
modifications: staple 8-12
SMILES: CC(C)C[C@@H]1NC(=O)[C@H](CCC(=O)O)NC(=O)[C@@](C)(NC(=O)[C@H](CC(C)C)NC(=O)[C@@H](NC(=O)[C@H](CC(C)C)NC(=O)[C@H](CCC(=O)O)NC(=O)[C@H](C)NC(=O)[C@H](C)NC(=O)[C@H](C)NC(=O)CCNC(=O)c2ccc3c(c2)C(=O)OC32c3ccc(O)cc3Oc3cc(O)ccc32)[C@@H](C)O)CCCC=CCCC[C@@](C)(C(N)=O)NC(=O)[C@H](CC(C)C)NC1=O
As to B2, binding in data set [4] was characterised by a dissociation constant (Kd) of 8000 nM. Compared with the last molecule, the Kd is about 19-fold higher. On to {5FAM-βAla}-AAAE[R8]TLQELL[S5] (staple 5-12) [(i, i + 7) stapled peptide 11], for which, in data set [4], the affinity, expressed as Kd, was 7000 nM.

Molecule AAAELTLQELL-{Dap(acrylamide)} (not fully specified (N-terminus)) [nonfluorescent acrylamide covalent peptide 2b] registered a half-maximal effective concentration (EC50) in data set [5] of 2070 nM.

{5FAM-βAla}-[S5]AAE[S5]TLQELLG (staple 1-5) [(i, i + 4) stapled peptide 5] displayed a dissociation constant Kd in data set [4] of 590 nM. Turning to AAAELTLQELL-{Dap(bromoacetamide)} (not fully specified (N-terminus)) [nonfluorescent bromoacetamide covalent peptide 3b], the EC50 in data set [5] was found to be 2410 nM.
